Laboratory results reported in PMC9600963, “Cation ATPase (ATP4) Orthologue Replacement in the Malaria Parasite Plasmodium knowlesi Reveals Species-Specific Responses to ATP4-Targeting Drugs” (mBio, 2022).

Tests used:
Type in all cases: cell-based
[1] = target: T1, PvATP4 (PvATP4^OR line) (Plasmodium vivax, UniProt A5K0L8); assay: SBFI fluorescence of intracellular Na+ in saponin-isolated trophozoites; conditions: 0.1 µM, physiological saline, pH 7.1, 37°C
T1 construct: gene PVX_084625; full-length recodonized coding region replacing pkatp4 in P. knowlesi A1-H.1; untagged; intact parasites
Text: SBFI fluorescence of intracellular Na+ in saponin-isolated trophozoites on PvATP4 (PvATP4^OR line)

[2] = target: T2, PocATP4 (PocATP4^OR line) (Plasmodium ovale, UniProt A0A1D3TM67); assay: growth inhibition of orthologue replacement parasite line, SYBR green I (whole-cell read-out); conditions: intact P. knowlesi parasites in erythrocytes, 27 h (one life cycle); not a direct enzyme assay
T2 construct: gene ATP4; full-length recodonized coding region replacing pkatp4 in P. knowlesi A1-H.1; untagged; intact parasites
T2 sequence (A0A1D3TM67 1-1433): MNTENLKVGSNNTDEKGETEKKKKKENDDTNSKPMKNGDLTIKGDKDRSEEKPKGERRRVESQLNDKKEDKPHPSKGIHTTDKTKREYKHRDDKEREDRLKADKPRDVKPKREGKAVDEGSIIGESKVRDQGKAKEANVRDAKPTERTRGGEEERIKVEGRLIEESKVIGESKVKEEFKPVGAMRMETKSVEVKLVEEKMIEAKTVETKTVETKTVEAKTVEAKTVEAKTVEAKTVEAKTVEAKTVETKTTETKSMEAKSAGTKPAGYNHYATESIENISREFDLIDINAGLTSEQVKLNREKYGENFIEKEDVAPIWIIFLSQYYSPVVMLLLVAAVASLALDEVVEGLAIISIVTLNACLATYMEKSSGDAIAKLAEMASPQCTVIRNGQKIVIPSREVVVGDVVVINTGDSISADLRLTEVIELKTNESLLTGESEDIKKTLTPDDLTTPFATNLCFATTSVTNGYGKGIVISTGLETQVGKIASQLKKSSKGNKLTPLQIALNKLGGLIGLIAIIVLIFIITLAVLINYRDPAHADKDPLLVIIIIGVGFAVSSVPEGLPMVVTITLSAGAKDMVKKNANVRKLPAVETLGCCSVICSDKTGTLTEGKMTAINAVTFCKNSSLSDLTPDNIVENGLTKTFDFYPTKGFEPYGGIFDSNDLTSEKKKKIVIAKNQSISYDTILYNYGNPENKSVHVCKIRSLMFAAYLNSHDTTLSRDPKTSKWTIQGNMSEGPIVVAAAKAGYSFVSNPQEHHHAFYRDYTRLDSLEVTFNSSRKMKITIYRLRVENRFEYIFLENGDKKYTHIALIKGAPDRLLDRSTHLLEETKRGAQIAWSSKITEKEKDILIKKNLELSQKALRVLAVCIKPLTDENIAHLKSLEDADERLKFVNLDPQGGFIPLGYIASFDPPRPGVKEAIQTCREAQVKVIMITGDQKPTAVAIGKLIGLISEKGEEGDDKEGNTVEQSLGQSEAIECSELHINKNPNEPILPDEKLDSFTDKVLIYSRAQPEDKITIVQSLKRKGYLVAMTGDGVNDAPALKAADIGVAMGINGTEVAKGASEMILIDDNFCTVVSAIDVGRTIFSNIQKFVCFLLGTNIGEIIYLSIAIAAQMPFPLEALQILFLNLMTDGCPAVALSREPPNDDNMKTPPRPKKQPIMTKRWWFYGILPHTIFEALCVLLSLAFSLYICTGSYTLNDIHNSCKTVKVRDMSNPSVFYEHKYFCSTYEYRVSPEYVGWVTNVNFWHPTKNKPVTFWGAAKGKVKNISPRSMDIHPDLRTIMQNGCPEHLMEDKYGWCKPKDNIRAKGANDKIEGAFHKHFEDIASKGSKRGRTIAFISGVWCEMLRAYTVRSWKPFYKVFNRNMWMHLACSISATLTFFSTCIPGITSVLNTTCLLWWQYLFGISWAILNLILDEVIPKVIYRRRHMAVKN
Text: growth inhibition of orthologue replacement parasite line, SYBR green I (whole-cell read-out) on PocATP4 (PocATP4^OR line)

[3] = target: T3, PkATP4 (PkATP4^OR line) (Plasmodium knowlesi, UniProt A0A384LKC1); assay: SBFI fluorescence of intracellular Na+ in saponin-isolated trophozoites; conditions: 0.1 µM, physiological saline, pH 7.1, 37°C
T3 construct: gene PKNH_1312000; untagged; intact parasites
T3 sequence (A0A384LKC1 1-1293): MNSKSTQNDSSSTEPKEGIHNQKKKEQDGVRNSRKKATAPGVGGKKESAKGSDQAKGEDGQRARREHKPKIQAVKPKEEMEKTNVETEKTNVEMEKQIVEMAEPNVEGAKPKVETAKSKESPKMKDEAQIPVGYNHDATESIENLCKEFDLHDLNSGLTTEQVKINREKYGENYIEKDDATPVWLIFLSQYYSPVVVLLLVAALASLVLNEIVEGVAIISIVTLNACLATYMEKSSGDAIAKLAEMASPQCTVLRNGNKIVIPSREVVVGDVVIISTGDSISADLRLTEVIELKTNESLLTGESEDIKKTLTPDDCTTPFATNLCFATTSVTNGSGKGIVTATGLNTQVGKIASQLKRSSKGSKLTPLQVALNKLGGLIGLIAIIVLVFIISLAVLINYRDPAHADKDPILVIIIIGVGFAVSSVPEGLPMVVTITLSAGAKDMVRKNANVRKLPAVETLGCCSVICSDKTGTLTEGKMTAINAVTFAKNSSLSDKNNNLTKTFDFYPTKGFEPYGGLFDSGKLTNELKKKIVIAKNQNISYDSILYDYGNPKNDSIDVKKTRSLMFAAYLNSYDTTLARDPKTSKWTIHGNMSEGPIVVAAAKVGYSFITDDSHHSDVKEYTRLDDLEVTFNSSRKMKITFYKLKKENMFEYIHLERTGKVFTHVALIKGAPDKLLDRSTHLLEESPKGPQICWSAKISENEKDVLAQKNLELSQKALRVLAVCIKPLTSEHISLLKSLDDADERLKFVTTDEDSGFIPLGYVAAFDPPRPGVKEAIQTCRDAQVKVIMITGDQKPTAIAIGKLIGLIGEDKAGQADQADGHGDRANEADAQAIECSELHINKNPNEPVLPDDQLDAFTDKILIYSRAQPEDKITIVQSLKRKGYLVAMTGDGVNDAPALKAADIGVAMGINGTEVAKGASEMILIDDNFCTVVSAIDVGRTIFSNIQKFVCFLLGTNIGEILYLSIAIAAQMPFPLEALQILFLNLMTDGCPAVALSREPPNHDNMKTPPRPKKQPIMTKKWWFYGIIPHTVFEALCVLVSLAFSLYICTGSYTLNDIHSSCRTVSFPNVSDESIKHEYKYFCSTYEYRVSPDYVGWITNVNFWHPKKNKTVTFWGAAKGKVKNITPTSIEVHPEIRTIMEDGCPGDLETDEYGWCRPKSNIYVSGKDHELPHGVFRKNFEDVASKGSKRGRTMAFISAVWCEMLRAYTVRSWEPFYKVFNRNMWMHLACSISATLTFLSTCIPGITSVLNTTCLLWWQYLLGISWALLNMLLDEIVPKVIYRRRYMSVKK
Text: SBFI fluorescence of intracellular Na+ in saponin-isolated trophozoites on PkATP4 (PkATP4^OR line)

[4] = target: T4, PfATP4 (PfATP4^OR line) (Plasmodium falciparum, UniProt A0A143ZZK9); assay: as above; conditions: 0.1 µM, physiological saline, pH 7.1, 37°C
T4 construct: gene ATP4; full-length recodonized coding region replacing pkatp4 in P. knowlesi A1-H.1; untagged; intact parasites
Text: SBFI fluorescence of intracellular Na+ in saponin-isolated trophozoites on PfATP4 (PfATP4^OR line)

[5] = target: T2, PocATP4 (PocATP4^OR line); assay: as above; conditions: 0.1 µM, physiological saline, pH 7.1, 37°C
Text: SBFI fluorescence of intracellular Na+ in saponin-isolated trophozoites on PocATP4 (PocATP4^OR line)

[6] = target: T1, PvATP4 (PvATP4^OR line); assay: growth inhibition of orthologue replacement parasite line, SYBR green I (whole-cell read-out); conditions: intact P. knowlesi parasites in erythrocytes, 27 h (one life cycle); not a direct enzyme assay
Text: growth inhibition of orthologue replacement parasite line, SYBR green I (whole-cell read-out) on PvATP4 (PvATP4^OR line)

[7] = target: T5, PmATP4 (PmATP4^OR line) (Plasmodium malariae, UniProt A0A1A8WBD6); assay: SBFI fluorescence of intracellular Na+ in saponin-isolated trophozoites; conditions: 0.1 µM, physiological saline, pH 7.1, 37°C
T5 construct: gene ATP4; full-length recodonized coding region replacing pkatp4 in P. knowlesi A1-H.1; untagged; intact parasites
T5 sequence (A0A1A8WBD6 1-1380): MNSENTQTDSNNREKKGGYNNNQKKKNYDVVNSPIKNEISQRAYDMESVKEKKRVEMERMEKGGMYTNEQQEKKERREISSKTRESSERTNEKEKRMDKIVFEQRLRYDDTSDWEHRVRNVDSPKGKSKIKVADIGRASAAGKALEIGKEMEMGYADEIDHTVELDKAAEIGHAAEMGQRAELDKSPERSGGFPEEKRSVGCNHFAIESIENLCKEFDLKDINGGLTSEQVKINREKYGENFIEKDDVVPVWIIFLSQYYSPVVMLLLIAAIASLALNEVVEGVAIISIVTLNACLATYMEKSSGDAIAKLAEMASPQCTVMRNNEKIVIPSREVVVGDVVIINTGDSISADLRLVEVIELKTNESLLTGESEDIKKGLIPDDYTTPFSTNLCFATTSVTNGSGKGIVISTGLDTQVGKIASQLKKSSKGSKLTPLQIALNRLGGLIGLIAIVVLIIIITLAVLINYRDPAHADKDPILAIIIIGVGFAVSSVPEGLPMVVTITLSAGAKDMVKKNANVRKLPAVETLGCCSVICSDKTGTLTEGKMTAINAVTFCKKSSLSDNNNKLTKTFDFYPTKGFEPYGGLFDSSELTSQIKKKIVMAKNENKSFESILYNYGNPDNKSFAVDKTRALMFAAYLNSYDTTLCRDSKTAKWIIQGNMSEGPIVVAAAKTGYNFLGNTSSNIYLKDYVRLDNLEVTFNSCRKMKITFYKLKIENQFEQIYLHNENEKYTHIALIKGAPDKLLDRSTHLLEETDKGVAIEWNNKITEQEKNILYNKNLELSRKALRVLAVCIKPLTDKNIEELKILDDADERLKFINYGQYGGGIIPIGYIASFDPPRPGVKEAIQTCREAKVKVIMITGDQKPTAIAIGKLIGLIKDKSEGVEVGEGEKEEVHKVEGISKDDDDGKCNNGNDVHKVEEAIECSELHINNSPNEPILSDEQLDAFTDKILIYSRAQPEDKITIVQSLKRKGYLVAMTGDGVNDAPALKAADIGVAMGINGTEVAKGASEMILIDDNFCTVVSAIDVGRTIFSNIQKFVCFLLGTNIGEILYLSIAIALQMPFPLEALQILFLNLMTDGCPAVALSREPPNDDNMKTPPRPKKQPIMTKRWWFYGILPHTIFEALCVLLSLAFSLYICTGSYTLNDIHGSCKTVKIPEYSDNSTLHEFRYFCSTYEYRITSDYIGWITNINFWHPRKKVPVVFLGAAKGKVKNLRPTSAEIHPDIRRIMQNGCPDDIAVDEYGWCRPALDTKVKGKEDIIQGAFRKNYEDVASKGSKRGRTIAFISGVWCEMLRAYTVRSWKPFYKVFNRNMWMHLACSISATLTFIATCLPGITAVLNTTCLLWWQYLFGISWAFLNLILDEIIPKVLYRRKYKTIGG
Text: SBFI fluorescence of intracellular Na+ in saponin-isolated trophozoites on PmATP4 (PmATP4^OR line)

[8] = target: T5, PmATP4 (PmATP4^OR line); assay: growth inhibition of orthologue replacement parasite line, SYBR green I (whole-cell read-out); conditions: intact P. knowlesi parasites in erythrocytes, 27 h (one life cycle); not a direct enzyme assay
Text: growth inhibition of orthologue replacement parasite line, SYBR green I (whole-cell read-out) on PmATP4 (PmATP4^OR line)

[9] = target: T3, PkATP4 (PkATP4^OR line); assay: as above; conditions: intact P. knowlesi parasites in erythrocytes, 27 h (one life cycle); not a direct enzyme assay
Text: growth inhibition of orthologue replacement parasite line, SYBR green I (whole-cell read-out) on PkATP4 (PkATP4^OR line)

[10] = target: T4, PfATP4 (PfATP4^OR line); assay: as above; conditions: intact P. knowlesi parasites in erythrocytes, 27 h (one life cycle); not a direct enzyme assay
Text: growth inhibition of orthologue replacement parasite line, SYBR green I (whole-cell read-out) on PfATP4 (PfATP4^OR line)

T4 sequence (A0A143ZZK9 whole entry): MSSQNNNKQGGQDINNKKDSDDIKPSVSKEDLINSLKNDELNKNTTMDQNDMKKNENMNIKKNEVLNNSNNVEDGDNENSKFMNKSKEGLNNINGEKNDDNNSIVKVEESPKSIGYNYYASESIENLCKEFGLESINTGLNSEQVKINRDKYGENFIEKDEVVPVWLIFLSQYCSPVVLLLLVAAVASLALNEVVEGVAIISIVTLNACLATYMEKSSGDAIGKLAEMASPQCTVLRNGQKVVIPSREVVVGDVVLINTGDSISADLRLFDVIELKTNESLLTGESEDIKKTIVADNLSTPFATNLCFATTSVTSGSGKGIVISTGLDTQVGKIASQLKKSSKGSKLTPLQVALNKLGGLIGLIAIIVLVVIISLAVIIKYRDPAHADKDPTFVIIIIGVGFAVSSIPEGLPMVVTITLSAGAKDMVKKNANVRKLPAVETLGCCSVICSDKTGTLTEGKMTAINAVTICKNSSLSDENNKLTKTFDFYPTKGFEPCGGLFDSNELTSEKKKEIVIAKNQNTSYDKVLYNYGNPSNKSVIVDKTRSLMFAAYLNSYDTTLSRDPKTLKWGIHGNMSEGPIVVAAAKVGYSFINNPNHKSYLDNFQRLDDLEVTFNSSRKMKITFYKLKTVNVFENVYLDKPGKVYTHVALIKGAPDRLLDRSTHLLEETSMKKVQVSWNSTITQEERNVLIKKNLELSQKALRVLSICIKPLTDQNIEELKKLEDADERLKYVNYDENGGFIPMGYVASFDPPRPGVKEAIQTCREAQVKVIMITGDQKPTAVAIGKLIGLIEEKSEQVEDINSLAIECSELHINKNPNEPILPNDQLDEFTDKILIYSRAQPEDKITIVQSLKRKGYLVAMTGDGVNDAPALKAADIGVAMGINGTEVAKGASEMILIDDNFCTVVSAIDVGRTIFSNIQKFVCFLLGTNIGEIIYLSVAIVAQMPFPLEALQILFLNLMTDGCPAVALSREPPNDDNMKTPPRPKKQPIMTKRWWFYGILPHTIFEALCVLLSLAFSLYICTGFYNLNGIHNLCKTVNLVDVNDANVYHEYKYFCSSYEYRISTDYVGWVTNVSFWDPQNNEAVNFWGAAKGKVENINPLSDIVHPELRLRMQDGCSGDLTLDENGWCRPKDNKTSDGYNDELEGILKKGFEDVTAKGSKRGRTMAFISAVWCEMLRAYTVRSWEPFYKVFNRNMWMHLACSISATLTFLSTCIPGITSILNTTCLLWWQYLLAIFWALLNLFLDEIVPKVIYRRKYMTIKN

Compound: C[C@H]1Cc2c([nH]c3cc(Cl)c(F)cc23)[C@@]2(N1)C(=O)Nc1ccc(Cl)cc12 [cipargamin]
- Rate of increase in [Na^+]i 10 min after cipargamin exposure, μM/s (P value) [1]: 96.6 ± 47.3 µM/s
- EC50, nM (P value) / Cipargamin [2]: 34.1 ± 1.6 nM
- Rate of increase in [Na^+]i 10 min after cipargamin exposure, μM/s (P value) [3]: 35.8 ± 9.98 µM/s
- Rate of increase in [Na^+]i 10 min after cipargamin exposure, μM/s (P value) [4]: 203.2 ± 54.1 µM/s
- Rate of increase in [Na^+]i 10 min after cipargamin exposure, μM/s (P value) [5]: 41.5 ± 8.85 µM/s
- EC50, nM (P value) / Cipargamin [6]: 22.9 ± 4.2 nM
- Rate of increase in [Na^+]i 10 min after cipargamin exposure, μM/s (P value) [7]: 35.7 ± 8.07 µM/s
- EC50, nM (P value) / Cipargamin [8]: 9.44 ± 2.0 nM
- EC50, nM (P value) / Cipargamin [9]: 13.5 ± 2.4 nM
- EC50, nM (P value) / Cipargamin [10]: 1.62 ± 0.37 nM
